Residue numbers refer to the chain shown, from its start.
Legend:
[1] = molecular target: T1, DrOTOP1 mutants targeting the C-domain pocket (Danio rerio, UniProt Q7ZWK8, G346F); test: Whole-cell patch-clamp, inhibition of acid-evoked currents, other DrOTOP1 C-domain pocket mutants (e.g. G346F, Y422F, L531F, I565W/G346F; Supplementary Fig. 5); assay type: cell-based, zebrafish (Danio rerio); conditions: 100 µM; DrOTOP1 G346F; compared with WT
T1 construct: A previously generated codon-optimized full-length DrOTOP1[8]; (UniProt: Q7ZWK8) construct; expressed in transfected cells; host or cells: HEK-293 (CRL-1573, ATCC)
T1 sequence (Q7ZWK8 1-586 G346F): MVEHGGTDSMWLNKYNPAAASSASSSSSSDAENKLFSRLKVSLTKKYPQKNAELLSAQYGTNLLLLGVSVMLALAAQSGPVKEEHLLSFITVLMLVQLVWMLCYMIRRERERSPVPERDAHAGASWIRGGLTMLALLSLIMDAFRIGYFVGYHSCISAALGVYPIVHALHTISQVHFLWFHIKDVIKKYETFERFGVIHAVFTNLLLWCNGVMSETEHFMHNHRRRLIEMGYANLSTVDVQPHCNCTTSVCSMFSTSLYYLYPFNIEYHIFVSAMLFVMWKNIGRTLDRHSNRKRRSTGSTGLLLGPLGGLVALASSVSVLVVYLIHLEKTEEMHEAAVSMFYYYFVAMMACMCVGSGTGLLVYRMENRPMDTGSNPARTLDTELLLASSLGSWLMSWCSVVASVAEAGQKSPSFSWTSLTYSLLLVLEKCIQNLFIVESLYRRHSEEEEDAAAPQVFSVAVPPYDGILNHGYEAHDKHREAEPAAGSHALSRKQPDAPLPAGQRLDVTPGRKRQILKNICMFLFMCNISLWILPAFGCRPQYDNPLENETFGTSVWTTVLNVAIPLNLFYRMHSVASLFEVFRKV
From the text: (§1) To experimentally verify whether C11 and C2.2 bind in the C-domain pocket as predicted, we used their docked poses to guide mutagenesis. The predicted interactions for C11 and C2.2 include π-stacking with F342 and Y422, potential H-bonding with Q542, N568, and R572 (Fig. 2J, K and Supplementary Fig. 5A), and hydrophobic packing. We generated single-residue mutants of these and other residues in DrOTOP1 that were expected to disrupt specific molecular interactions or to introduce a bulky tryptophan residue (W) to produce steric hindrance.
(§2) We next tested a subset of these mutants for sensitivity to C2.2, focusing on those that could occlude the C-domain pocket. […]
(§3) Whole-cell patch-clamp recording was performed as previously described[6],[22],[25]. Recordings were made with an Axopatch 200B amplifier, digitized with a Digidata 1322a 16-bit data acquisition system, acquired with pClamp 8.2 and analyzed with Clampfit 10 (Molecular Devices). […]
(§4) All data are presented as mean ± SEM unless otherwise noted, and each data point represents an independent replicant. Inhibition of compounds was quantified as ((I2peak-I1)/(I2peak))*100, where I1 is the current immediately before wash-off and I2peak is the maximum recovered current (Supplementary Fig. 2). Hill coefficients were determined by the following equation: Y = Bmax*X^h/(Kd^h + X^h). […]

[2] = molecular target: T2, DrOTOP1 mutants targeting the C-domain pocket (Danio rerio, UniProt Q7ZWK8, G346F/I565W); test: as above; assay type: cell-based, zebrafish (Danio rerio); conditions: DrOTOP1 I565W / G346F; Supp. Fig 5C
T2 construct: A previously generated codon-optimized full-length DrOTOP1[8]; (UniProt: Q7ZWK8) construct; expressed in transfected cells; host or cells: HEK-293 (CRL-1573, ATCC)
T2 sequence (Q7ZWK8 1-586 G346F/I565W): T1 sequence (Q7ZWK8 1-586 G346F) with I565W
From the text: as §1, §2, §3, §4

Compound: O=C(/C(=N\O)c1ccccc1)c1ccccc1 [C11, benzil monoxime]
- Inhibition of currents [1]: slightly reduced inhibition
- inhibition of acid-evoked current, mean (Mean of column R) [2]: 28
